The results in this text go back to ChEMBL document CHEMBL1201862, “PubChem BioAssay data set” (2004).

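Five compound concentrations were applied to cells in 96-well plates for 48 hours; endpoints were derived by simple linear interpolation of the resulting dose-response curve. The concentration for 50% growth inhibition is given as GI50.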 Active and inactive are the calls of the source. Cut-off read from the data, not from the text of the source: active = GI50 up to about 1.1 µM and inactive = higher.

What all share (assay): growth of human tumour cells (NCI), 48 h
For assay [1], the system named is ACHN.
Assay [2] relates to DU-145.
For assay [3], the system named is HCC 2998.
Assay [4] concerns HCT-116.
The subject of assay [5] is HL-60.
Assay [6] concerns HOP-62.
Assay [7] has as its system KM12.
In assay [8] the test system is MDA-MB-231.
For assay [9], the system named is Malme-3M.
In assay [10] the test system is NCI-H23.
The test system of assay [11] is NCI-H460.
Assay [12] deals with OVCAR-4.
Assay [13] has as its system RPMI-8226.
In assay [14] the test system is SF-268.
In assay [15] the test system is SF-295.
Assay [16] deals with SF-539.
The test system of assay [17] is SK-MEL-2.
Assay [18] relates to UACC-257.
Assay [19] deals with UACC-62.

As to `O=[N+]([O-])c1ccc(NC(=S)N/N=C(\c2ccccc2)c2ccccn2)cc1`, the GI50 in [1] is 1.16 µM (inactive); in [2], 1.66 µM (inactive); in [3], 1.51 µM (inactive); in assay [4] it was 1.49 µM (inactive); in assay [5], < 0.0129 µM (active); in assay [6], 0.242 µM (active). For the same compound, the GI50 in assay [7] is 1.7 µM (inactive); in assay [8], < 0.01 µM (active); in assay [9], 1.65 µM (inactive); in assay [10], 2.18 µM (inactive); in [11], 4.85 µM (inactive); in assay [12], 1.73 µM (inactive). Also, the GI50 in assay [13] was 4.74 µM (inactive); in assay [14], 0.0491 µM (active); in assay [15] it was 1.55 µM (inactive); in assay [16], 1.74 µM (inactive); in assay [17], 1.76 µM (inactive); in [18] it was 1.6 µM (inactive). In addition, the GI50 in assay [19] is 1.24 µM (inactive).

`COc1ccc2c(c1OC)OC[C@@H](C1=CC(=O)C=C(O)C1=O)C2`: the GI50 is 4.8 µM (inactive) in assay [1]; 15.7 µM (inactive) in assay [2]; 17.2 µM (inactive) in assay [3]; 4.7 µM (inactive) in assay [4]; 0.641 µM (active) in assay [5]; 27 µM (inactive) in assay [6]. The GI50 in assay [7] is 13 µM (inactive); in assay [8], 4.46 µM (inactive); in assay [9] it was 12 µM (inactive); in assay [10], 16.5 µM (inactive); in [11], 11.8 µM (inactive); in [12] it was 5.53 µM (inactive). For the same compound, the GI50 in assay [13] was 1.91 µM (inactive); in [14] it was 18.1 µM (inactive); in assay [15], 16.1 µM (inactive); in assay [16] it was 13.5 µM (inactive); in assay [17] it was 15.3 µM (inactive); in assay [18], 13 µM (inactive). Moreover, the GI50 in [19] was 12.1 µM (inactive).

With `C=CC(O)(CBr)CCC(Br)C(=C)C` (stereo not given), the GI50 in assay [1], in assay [2], in assay [3], in assay [4], in assay [5] and in assay [6] was > 10 µM (inactive) in each case. Further, the GI50 in [7], in [8], in assay [9], in [10], in [11] and in [12] was > 10 µM (inactive) each time. The GI50 in [13], in assay [14], in assay [15], in [16], in assay [17] and in assay [18] was > 10 µM (inactive) each time. Also, the GI50 in assay [19] is > 10 µM (inactive).

In the case of `Cc1cc(S(=O)(=O)/N=C(\NN)NCC(=O)NN)c(S)cc1Cl`, the GI50 in assay [1] was > 10 µM (inactive); in [2], > 10 µM (inactive); in assay [3], 8.73 µM (inactive); in assay [4] it was > 10 µM (inactive); in assay [5] it was > 10 µM (inactive); in assay [6] it was > 10 µM (inactive). The GI50 in assay [7], in assay [8], in assay [9], in [10], in [11] and in assay [12] was > 10 µM (inactive) throughout. Also, the GI50 in assay [13], in assay [14], in assay [15], in assay [16], in [17] and in assay [18] was > 10 µM (inactive) throughout. Besides, in assay [19], the GI50 is > 10 µM (inactive).

For the compound `COC(=O)[C@]12CC[C@H]3CN(S(=O)(=O)c4ccc(C)cc4)[C@H]([C@H]31)[C@H](c1ccco1)N2S(=O)(=O)c1ccc(C)cc1`, the GI50 in assay [1] is 39.7 µM (inactive); in assay [2], 40.6 µM (inactive); in assay [3] it was 78.2 µM (inactive); in [4] it was 27.2 µM (inactive); in [5] it was 30.2 µM (inactive); in assay [6], 66.4 µM (inactive). Also, the GI50 was 32.9 µM (inactive) in assay [7]; 55.8 µM (inactive) in assay [8]; 23.8 µM (inactive) in [9]; 48.1 µM (inactive) in assay [10]; 35.8 µM (inactive) in [11]; 27.7 µM (inactive) in [12]. The GI50 in [13] was 20 µM (inactive); in assay [14], 42.3 µM (inactive); in [15], 35.6 µM (inactive); in [16], > 100 µM (inactive); in assay [17], 29.2 µM (inactive); in assay [18] it was 28.6 µM (inactive). In [19], the GI50 was 19.4 µM (inactive).

On to `COc1cc(C2SC(=N)Nc3c2c(C)nn3C(=O)c2ccc(Cl)cc2)cc(OC)c1OC` (stereo not given), for which the GI50 in assay [1], in assay [2], in [3], in assay [4], in [5] and in assay [6] was > 10 µM (inactive) each time. The GI50 in assay [7], in assay [8], in assay [9], in assay [10], in [11] and in assay [12] was > 10 µM (inactive) throughout. Moreover, the GI50 in assay [13], in assay [14], in assay [15], in assay [16], in [17] and in assay [18] was > 10 µM (inactive) in each case. Moreover, the GI50 in [19] was > 10 µM (inactive).

Regarding `N#CC1(C#N)NC(c2cccs2)C(C#N)(C#N)NC1c1cccs1` (stereo not given), the GI50 is 25.4 µM (inactive) in [1]; 59.7 µM (inactive) in [2]; 57.1 µM (inactive) in assay [3]; 30.5 µM (inactive) in assay [4]; 17.1 µM (inactive) in assay [5]; > 100 µM (inactive) in assay [6]. Besides, the GI50 was 39.9 µM (inactive) in assay [7]; 80.9 µM (inactive) in [8]; 41.9 µM (inactive) in assay [9]; 55.1 µM (inactive) in assay [10]; 37.3 µM (inactive) in [11]; 43.7 µM (inactive) in assay [12]. Besides, the GI50 was 27.4 µM (inactive) in assay [13]; 35.5 µM (inactive) in assay [14]; 52.5 µM (inactive) in [15]; 19.9 µM (inactive) in assay [16]; 14.2 µM (inactive) in assay [17]; > 100 µM (inactive) in assay [18]. The GI50 in assay [19] was 20.6 µM (inactive).

Regarding `COc1cc(OC)c2c(c1)OC(c1cccnc1)C(c1ccccc1)C2=O` (stereo not given), the GI50 in assay [1], in assay [2], in [3], in [4], in assay [5] and in assay [6] was > 100 µM (inactive) throughout. Besides, the GI50 in assay [7] was > 100 µM (inactive); in assay [8], > 100 µM (inactive); in assay [9], > 100 µM (inactive); in assay [10], > 100 µM (inactive); in assay [11], 34 µM (inactive); in [12], 80.2 µM (inactive). The GI50 in assay [13] is > 100 µM (inactive); in assay [14] it was > 100 µM (inactive); in [15], > 100 µM (inactive); in assay [16], > 100 µM (inactive); in [17], 34.4 µM (inactive); in assay [18], > 100 µM (inactive). Besides, the GI50 in [19] was > 100 µM (inactive).

Take `COc1ccc2c(c1OC)OCC(CN(C)C)C2=O` (stereo not given): the GI50 in assay [1] is 17.7 µM (inactive); in [2], 18.8 µM (inactive); in assay [3] it was 18.7 µM (inactive); in [4], 17.4 µM (inactive); in assay [5], 2.54 µM (inactive); in assay [6], > 51.8 µM (inactive). Also, the GI50 in assay [7] was 16.5 µM (inactive); in assay [8], 18.8 µM (inactive); in assay [9] it was 18.5 µM (inactive); in [10] it was 17.1 µM (inactive); in assay [11], > 44.6 µM (inactive); in assay [12], 22.9 µM (inactive). For the same compound, the GI50 is 2.42 µM (inactive) in [13]; 25.4 µM (inactive) in assay [14]; > 100 µM (inactive) in assay [15]; 20.4 µM (inactive) in assay [16]; 16.7 µM (inactive) in [17]; 16.7 µM (inactive) in assay [18]. Also, the GI50 in assay [19] was 17.1 µM (inactive).

On to `O=c1oc2cc(O)ccc2cc1-c1nc2ccccc2o1`, for which the GI50 in assay [1] is 32.3 µM (inactive); in assay [2], 33.3 µM (inactive); in assay [3] it was 39.8 µM (inactive); in [4] it was 41.6 µM (inactive); in [5], 23.8 µM (inactive); in assay [6], 23.3 µM (inactive). In addition, the GI50 is 25.8 µM (inactive) in [7]; 35.6 µM (inactive) in assay [8]; 39.5 µM (inactive) in assay [9]; 32.6 µM (inactive) in assay [10]; 30.5 µM (inactive) in assay [11]; 29.8 µM (inactive) in assay [12]. The GI50 was 24.3 µM (inactive) in [13]; 32.2 µM (inactive) in [14]; 44.9 µM (inactive) in assay [15]; 58.2 µM (inactive) in [16]; 21.9 µM (inactive) in assay [17]; 43.4 µM (inactive) in [18]. Further, the GI50 in [19] is 20 µM (inactive).
